Laboratory results reported in ChEMBL document CHEMBL3351452, “Chemical synthesis, cytotoxicity, selectivity and bioavailability of 5α-androstane-3α,17β-diol derivatives” (Bioorg Med Chem, 2014).

What was measured:
Cytochrome P450 2D6 = Cytochrome P450 2D6 (Homo sapiens, UniProt P10635); assay: Inhibition of CYP2D6 (unknown origin) using AMMC by fluorescence assay; format: ADME
[1] = Cytotoxicity against human peripheral blood lymphocytes assessed as assessed as CD19+ B cells population at 0.1 uM after 5 days by flow cytometry analysis (reference value: 2%); format: cell-based; conditions: lymphocyte, 120 h
[2] = Cytotoxicity against human peripheral blood lymphocytes assessed as assessed as CD19+ B cells population at 1 uM after 5 days by flow cytometry analysis (reference value: 2%); format: cell-based; conditions: lymphocyte, 120 h
[3] = Cytotoxicity against human peripheral blood lymphocytes assessed as assessed as CD19+ B cells population at 5 uM after 5 days by flow cytometry analysis (reference value: 2%); format: cell-based; conditions: lymphocyte, 120 h
[4] = Cytotoxicity against human peripheral blood lymphocytes assessed as assessed as CD19+ B cells population at 10 uM after 5 days by flow cytometry analysis (reference value: 2%); format: cell-based; conditions: lymphocyte, 120 h
[5] = Cytotoxicity against human peripheral blood lymphocytes assessed as assessed as CD19+ B cells population at 30 uM after 5 days by flow cytometry analysis (reference value: 2%); format: cell-based; conditions: lymphocyte, 120 h
[6] = Cytotoxicity against human peripheral blood lymphocytes assessed as assessed as CD19+ B cells population at 50 uM after 5 days by flow cytometry analysis (reference value: 2%); format: cell-based; conditions: lymphocyte, 120 h
[7] = Cytotoxicity against human peripheral blood lymphocytes assessed as assessed as CD3+ T cells population at 0.1 uM after 5 days by flow cytometry analysis (reference value: 73.8%); format: cell-based; conditions: lymphocyte, 120 h
[8] = Cytotoxicity against human peripheral blood lymphocytes assessed as assessed as CD3+ T cells population at 1 uM after 5 days by flow cytometry analysis (reference value: 73.8%); format: cell-based; conditions: lymphocyte, 120 h
[9] = Cytotoxicity against human peripheral blood lymphocytes assessed as assessed as CD3+ T cells population at 5 uM after 5 days by flow cytometry analysis (reference value: 73.8%); format: cell-based; conditions: lymphocyte, 120 h
[10] = Cytotoxicity against human peripheral blood lymphocytes assessed as assessed as CD3+ T cells population at 10 uM after 5 days by flow cytometry analysis (reference value: 73.8%); format: cell-based; conditions: lymphocyte, 120 h
[11] = Cytotoxicity against human peripheral blood lymphocytes assessed as assessed as CD3+ T cells population at 30 uM after 5 days by flow cytometry analysis (reference value: 73.8%); format: cell-based; conditions: lymphocyte, 120 h
[12] = Cytotoxicity against human peripheral blood lymphocytes assessed as assessed as CD3+ T cells population at 50 uM after 5 days by flow cytometry analysis (reference value: 73.8%); format: cell-based; conditions: lymphocyte, 120 h
[13] = Cytotoxicity against human peripheral blood lymphocytes assessed as assessed as CD3+/CD4+ T cells population at 0.1 uM after 5 days by flow cytometry analysis (reference value: 41.4%); format: cell-based; conditions: lymphocyte, 120 h
[14] = Cytotoxicity against human peripheral blood lymphocytes assessed as assessed as CD3+/CD4+ T cells population at 1 uM after 5 days by flow cytometry analysis (reference value: 41.4%); format: cell-based; conditions: lymphocyte, 120 h
[15] = Cytotoxicity against human peripheral blood lymphocytes assessed as assessed as CD3+/CD4+ T cells population at 5 uM after 5 days by flow cytometry analysis (reference value: 41.4%); format: cell-based; conditions: lymphocyte, 120 h
[16] = Cytotoxicity against human peripheral blood lymphocytes assessed as assessed as CD3+/CD4+ T cells population at 10 uM after 5 days by flow cytometry analysis (reference value: 41.4 %); format: cell-based; conditions: lymphocyte, 120 h
[17] = Cytotoxicity against human peripheral blood lymphocytes assessed as assessed as CD3+/CD4+ T cells population at 30 uM after 5 days by flow cytometry analysis (reference value: 41.4%); format: cell-based; conditions: lymphocyte, 120 h
[18] = Cytotoxicity against human peripheral blood lymphocytes assessed as assessed as CD3+/CD4+ T cells population at 50 uM after 5 days by flow cytometry analysis (reference value: 41.4%); format: cell-based; conditions: lymphocyte, 120 h
[19] = Cytotoxicity against human peripheral blood lymphocytes assessed as assessed as CD3+/CD8 T cells population at 0.1 uM after 5 days by flow cytometry analysis (reference value: 15.2 %); format: cell-based; conditions: lymphocyte, 120 h
[20] = Cytotoxicity against human peripheral blood lymphocytes assessed as assessed as CD3+/CD8 T cells population at 1 uM after 5 days by flow cytometry analysis (reference value: 15.2%); format: cell-based; conditions: lymphocyte, 120 h
[21] = Cytotoxicity against human peripheral blood lymphocytes assessed as assessed as CD3+/CD8 T cells population at 5 uM after 5 days by flow cytometry analysis (reference value: 15.2 %); format: cell-based; conditions: lymphocyte, 120 h
[22] = Cytotoxicity against human peripheral blood lymphocytes assessed as assessed as CD3+/CD8 T cells population at 10 uM after 5 days by flow cytometry analysis (reference value: 15.2 %); format: cell-based; conditions: lymphocyte, 120 h
[23] = Cytotoxicity against human peripheral blood lymphocytes assessed as assessed as CD3+/CD8 T cells population at 30 uM after 5 days by flow cytometry analysis (reference value: 15.2 %); format: cell-based; conditions: lymphocyte, 120 h
[24] = Cytotoxicity against human peripheral blood lymphocytes assessed as assessed as CD3+/CD8 T cells population at 50 uM after 5 days by flow cytometry analysis (reference value: 15.2 %); format: cell-based; conditions: lymphocyte, 120 h
[25] = Cytotoxicity against human peripheral blood lymphocytes assessed as assessed as CD4+/CD8+ […] ratio at 0.1 uM after 5 days by flow cytometry analysis (reference value: 2.7%); format: cell-based; conditions: lymphocyte, 120 h
[26] = Cytotoxicity against human peripheral blood lymphocytes assessed as assessed as CD4+/CD8+ […] ratio at 1 uM after 5 days by flow cytometry analysis (reference value: 2.7%); format: cell-based; conditions: lymphocyte, 120 h
[27] = Cytotoxicity against human peripheral blood lymphocytes assessed as assessed as CD4+/CD8+ […] ratio at 5 uM after 5 days by flow cytometry analysis (reference value: 2.7%); format: cell-based; conditions: lymphocyte, 120 h
[28] = Cytotoxicity against human peripheral blood lymphocytes assessed as assessed as CD4+/CD8+ […] ratio at 10 uM after 5 days by flow cytometry analysis (reference value: 2.7 %); format: cell-based; conditions: lymphocyte, 120 h
[29] = Cytotoxicity against human peripheral blood lymphocytes assessed as assessed as CD4+/CD8+ […] ratio at 30 uM after 5 days by flow cytometry analysis (reference value: 2.7%); format: cell-based; conditions: lymphocyte, 120 h
[30] = Cytotoxicity against human peripheral blood lymphocytes assessed as assessed as CD4+/CD8+ […] ratio at 50 uM after 5 days by flow cytometry analysis (reference value: 2.7%); format: cell-based; conditions: lymphocyte, 120 h
HL-60 = assay: Antiproliferative activity against human HL-60 cells assessed as reduction in cell growth after 24 hrs by MTS assay; format: functional, cell-based; conditions: HL-60, 24 h
MCF7 = assay: Antiproliferative activity against human MCF7 cells assessed as reduction in cell growth after 24 hrs by MTS assay; format: functional, cell-based; conditions: MCF7, 24 h
T47D = assay: Antiproliferative activity against human T47D cells assessed as reduction in cell growth after 24 hrs by MTS assay; format: functional, cell-based
LNCaP = assay: Antiproliferative activity against human LNCAP cells assessed as reduction in cell growth after 24 hrs by MTS assay; format: functional, cell-based
[31] = Plasma concentration in Sprague-Dawley rat at 2.3 mg/kg, sc measured at 3 hrs by LC/MS/MS analysis; format: ADME, organism-based; parameters: dose 2.3 mg/kg, route subcutaneous
[32] = Plasma concentration in Sprague-Dawley rat at 2.3 mg/kg, sc measured at 12 hrs by LC/MS/MS analysis; format: ADME, organism-based; parameters: dose 2.3 mg/kg, route subcutaneous
[33] = Cytotoxicity against mouse WEHI13 cells assessed as cell proliferation after 48 hrs by MTT assay; format: cell-based; conditions: WEHI13, 48 h
Cytochrome P450 3A4 = Cytochrome P450 3A4 (Homo sapiens, UniProt P08684); assay: Inhibition of CYP3A4 (unknown origin) using AMMC by fluorescence assay; format: ADME
Sequence of Cytochrome P450 3A4 (P08684 whole entry): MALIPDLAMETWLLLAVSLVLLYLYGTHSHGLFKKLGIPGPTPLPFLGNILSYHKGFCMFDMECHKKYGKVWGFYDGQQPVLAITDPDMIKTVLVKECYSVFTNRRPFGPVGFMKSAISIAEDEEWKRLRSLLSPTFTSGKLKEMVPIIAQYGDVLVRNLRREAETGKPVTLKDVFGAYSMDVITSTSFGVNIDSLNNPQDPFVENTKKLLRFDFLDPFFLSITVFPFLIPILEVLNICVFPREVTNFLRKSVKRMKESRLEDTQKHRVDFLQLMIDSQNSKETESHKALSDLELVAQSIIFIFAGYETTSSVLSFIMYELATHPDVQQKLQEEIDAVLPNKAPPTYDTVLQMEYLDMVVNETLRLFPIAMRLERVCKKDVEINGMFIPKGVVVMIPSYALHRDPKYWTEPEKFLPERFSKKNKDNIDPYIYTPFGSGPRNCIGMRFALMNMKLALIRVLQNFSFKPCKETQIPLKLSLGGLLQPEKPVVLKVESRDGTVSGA

Sequence of Cytochrome P450 2D6 (P10635 whole entry): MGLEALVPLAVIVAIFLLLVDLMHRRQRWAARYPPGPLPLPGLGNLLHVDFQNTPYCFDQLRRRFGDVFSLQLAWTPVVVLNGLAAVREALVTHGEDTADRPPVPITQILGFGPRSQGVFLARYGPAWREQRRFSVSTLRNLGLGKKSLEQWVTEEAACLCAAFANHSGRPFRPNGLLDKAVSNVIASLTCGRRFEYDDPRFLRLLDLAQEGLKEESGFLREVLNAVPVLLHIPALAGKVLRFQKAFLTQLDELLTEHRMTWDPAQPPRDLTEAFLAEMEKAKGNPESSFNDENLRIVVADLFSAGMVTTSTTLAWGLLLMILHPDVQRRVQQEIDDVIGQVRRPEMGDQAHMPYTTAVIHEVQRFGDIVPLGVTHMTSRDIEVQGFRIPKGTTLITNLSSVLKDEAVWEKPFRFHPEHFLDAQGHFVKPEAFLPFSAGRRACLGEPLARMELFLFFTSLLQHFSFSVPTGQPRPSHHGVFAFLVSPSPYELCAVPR

For `C#C[C@]1(O)CC[C@H]2[C@@H]3CC[C@H]4C[C@H](O)[C@@H](N5CCN(C(=O)[C@@H]6CCCN6C(=O)c6ccc7ccccc7n6)CC5)C[C@]4(C)[C@H]3CC[C@@]21C`, the IC50 (Cytochrome P450 2D6) was 25000 nM, the Activity [1] was 1.1% and the Activity [2] was 2.2%. It also gave an Activity [3] of 1.7%, an Activity [4] of 1.4% and an Activity [5] of 1.9%. It also gave an Activity [6] of 1.8%, an Activity [7] of 57.5% and an Activity [8] of 53.7%. It also gave an Activity [9] of 59.1%, an Activity [10] of 55.1% and an Activity [11] of 58.5%. For the same molecule, the Activity [12] was 62.1%, the Activity [13] was 16.9% and the Activity [14] was 16.6%. For the same molecule, the Activity [15] was 19.5%, the Activity [16] was 18.4% and the Activity [17] was 21%. For the same molecule, the Activity [18] was 23.1%, the Activity [19] was 12.1% and the Activity [20] was 3.3%. For the same molecule, the Activity [21] was 3.3%, the Activity [22] was 1.6% and the Activity [23] was 0.1%. The Activity [24] was 0.1%, the Activity [25] was 1.4% and the Activity [26] was 5%. It also gave an Activity [27] of 6%, an Activity [28] of 11.3% and an Activity [29] of 216%. For the same molecule, the Activity [30] was 231%, the IC50 (HL-60) was 100 nM and the IC50 (MCF7) was 100 nM. It also gave an IC50 (T47D) of 100 nM, an IC50 (LNCaP) of 2000 nM and a concentration at 3 h [31] of 151 ng/mL. The concentration at 12 h [32] was 15.7 ng/mL, the IC50 [33] was 1100 nM and the IC50 (Cytochrome P450 3A4) was 3800 nM.
